From patent publication US20160166570A1, “TREATMENT OR PREVENTION OF NON-INFLAMMATORY NEURONAL DAMAGE FROM BRAIN TRAUMA AND STROKES USING MENTHOL, LINALOOL AND/OR ICILIN” (NESTEC S.A., priority 2013, published 2016)

Experiments:
[1] = tested on: Lateral Amygdala glutamatergic neuron; assay: whole cell, current clamp recordings, square pulse at high depolarization, mouse brain slice; type: cell-based; settings: for action potentials at higher stimulation levels / amount of current required to trigger an action potential / threshold to trigger an action potential: as summarised from the experimental results; for amount of current required to trigger an action potential / threshold to trigger an action potential: neocortex; for inactivation of the sodium fast channels / further neuronal firing relative to control: square pulse of 2.5s at high depolarization of membrane potential (approximately −30 mV), FIG. 2
Description: (§1) A mouse brain slice was used to study the damage from Menthol, Linalool and Icilin. The amygdaloid complex is located within the medial temporal lobe in neocortex and amygdala. The lateral and basolateral nuclei of the amygdaloid complex receive sensory information from cortical and thalamic structures, process the information, and then transmit the information, either directly or through the basal nucleus, to the central nucleus. For experimental analysis of neuronal activity, synaptic responses from the basolateral complex can be evoked electrically using electrodes, and the action potentials can be measured. […] A square pulse of 2.5s was applied at high depolarization of membrane potential (approximately −30 mV).

[2] = tested on: Lateral Amygdala glutamatergic neuron; assay: whole cell, current clamp recordings with increasing concentration of gabazine (spontaneous action potential bursts), mouse brain slice; type: cell-based; settings: Menthol 250 μM extracellularly 10 minutes previous to and during increasing concentrations of gabazine; recordings of 5 min, washout 10 min; FIG. 5 vs FIG. 3
Description: as §1, with “As shown, neurons spontaneously present action” for “A square pulse of 2.5s was applied at high depolarization of membrane”, “bursts due to massive presynaptic discharges.” for “(approximately −30 mV).”

Row | SMILES | action potentials at higher stimulation levels [1] | amount of current required to trigger an action potential [1] | threshold to trigger an action potential [1] | inactivation of the sodium fast channels / further neuronal firing relative to control [1] | spontaneous action potential bursts under gabazine [2]
1 | O=C1NC(c2cccc([N+](=O)[O-])c2)=CCN1c1ccccc1O [Icilin] | abort action potentials at higher stimulation levels | increase the amount of current required to trigger an action potential | increase the threshold to trigger an action potential | inactivation of the sodium fast channels happens sooner relative to control | 
2 | C=CC(C)(O)CCC=C(C)C (stereo not shown) [Linalool] | abort action potentials at higher stimulation levels | increase the amount of current required to trigger an action potential | increase the threshold to trigger an action potential | inactivation of the sodium fast channels happens sooner relative to control | 
3 | CC1CCC(C(C)C)C(O)C1 (stereo not shown) [Menthol] | abort action potentials at higher stimulation levels | increase the amount of current required to trigger an action potential | increase the threshold to trigger an action potential | inactivation of the sodium fast channels happens sooner relative to control | complete absence or a strongly decreased presence of spontaneous bursts
